Experimental data from US8969247B2, “Method for controlling aquatic weeds” (BASF SE, priority 2005, dated 2015).

Experiments:
Format in all cases: in vivo
Hydrilla verticillata [1] = test: Experiment 2: shade house (outdoor) static exposure of hydrilla to topramezone; details: for Hydrilla Shoot Weight: 8 weeks after treatment, dry weight biomass, control 1.5 g, LSD (0.05) 0.2
Experimental: (§1) Greenhouse and shade house tests were initiated to evaluate the effects of HPPD-inhibitors, exemplary topramezone and mesotrione, for the control of aquatic weeds, exemplary for the control of Hydrilla verticillata.
Experiment 2 was conducted under shade house (outdoor) conditions. Four 4-liter pots were filled with 15 to 20 cm of sand medium plus amended fertilizer (15 grams Osmocote®^1 19-6-12). Four actively growing Hydrilla verticillata tips (10 to 15 cm in length) were planted 1 to 2 cm deep in medium. The four 4-liter pots were placed in 100-liter containers and covered fully with tap water. Plants were treated 15 days after planting once plant elongation and active growth were observed. There were three 100-liter containers per water treatment (three replications) with four sub-sample 4-liter pots and four Hydrilla verticillata plants per 4-liter pot. Treatments were arranged as a complete random design. ^1 Osmocote®—manufactured by: Scotts-Sierra Horticutural Products Company, Marysville, Ohio 43401 U.S.A
Water treatments of 50 ppb, 75 ppb, 100 ppb, 200 ppb, and 400 ppb of topramezone were installed. Plants were harvested 8 weeks after initial water treatment to determine dry weight biomass reductions compared to the untreated check.

Hydrilla verticillata [2] = test: Experiment 1: greenhouse static exposure of hydrilla to topramezone; details: 500 ppb
Experimental: as §1
(§2) To begin the experiment, containers were filled and maintained with a volume of 4000 ml of distilled water at room temperature (24° C.). To each container, an established hydrilla plant (potted in sand mixture) was transferred into the water column. Hydrilla plants were selected for uniformity and length of shoot growth (approx 15 cm). Plants were allowed to equilibrate in the columns for 24 hrs prior to herbicide treatment. Experimental treatments included an untreated control and topramezone at 500 ppb. Treatments were applied to water columns by the use of a pipette. Amount of herbicide applied was based on the total volume of the containers (4000 ml). After initial herbicide treatment, the water columns were gently stirred to ensure uniform distribution. Treatments were arranged as a complete random design with 3 replications. Each container was considered the experimental unit. Greenhouse conditions were maintained at 24/18° C. (day/night) cycle for the duration of the experiment. Natural day length was supplemented with halogen lighting to provide a 14 hr photoperiod. Water level in the containers was periodically checked and maintained at the 4000 ml level for the duration of the study. At the end of four weeks, hydrilla shoot length and fresh weights were recorded.

Hydrilla verticillata [3] = test: Experiment 3: greenhouse static exposure of hydrilla to mesotrione; details: 500 ppb
Experimental: as §1
as §2, with “mesotrione” for “topramezone”

[4] = approximately 14 days after treatment

| SMILES | Hydrilla Shoot Weight (Hydrilla verticillata [1]; 50 ppb) | Reduction in shoot biomass vs. the untreated control (Hydrilla verticillata [1]; 50 to 400 ppb, end of the study (8 weeks)) | Hydrilla Shoot Weight (Hydrilla verticillata [1]; 75 ppb) | Hydrilla Shoot Weight (Hydrilla verticillata [1]; 100 ppb) | Hydrilla Shoot Weight (Hydrilla verticillata [1]; 200 ppb) | Hydrilla Shoot Weight (Hydrilla verticillata [1]; 400 ppb) | Visual observations (Hydrilla verticillata [2]; [4]) | Reduction in shoot length and biomass (Student's t-Test) (Hydrilla verticillata [2]; end of the study (4 weeks)) | Effect on hydrilla tissue vs. the untreated control (Hydrilla verticillata [2]; over the course of the study) | Hydrilla Fresh Weight (Hydrilla verticillata [2]; static exposure, 4 weeks after treatment, control 17 g) | Hydrilla Shoot Length (Hydrilla verticillata [2]; static exposure, 4 weeks after treatment, control 37 cm) | Visual observations (Hydrilla verticillata [3]; [4]) | Reduction in shoot biomass (Student's t-Test) (Hydrilla verticillata [3]; end of the study (4 weeks)) | Reduction in shoot length (Student's t-Test) (Hydrilla verticillata [3]; end of the study (4 weeks)) | Hydrilla Fresh Weight (Hydrilla verticillata [3]; static exposure, 4 weeks after treatment, control 4.4 g) | Hydrilla Shoot Length (Hydrilla verticillata [3]; static exposure, 4 weeks after treatment, control 24 cm) |
| --- | --- | --- | --- | --- | --- | --- | --- | --- | --- | --- | --- | --- | --- | --- | --- | --- |
| Cc1c(C(=O)c2cnn(C)c2O)ccc(S(C)(=O)=O)c1C1=NOCC1 [topramezone] | 1.3 grams | significant reductions in shoot biomass | 0.8 grams | 0.8 grams | 0.7 grams | 0.6 grams | significant bleaching and reddening in the new grown tips | significant reductions in both shoot length and biomass | stunting and dieback of hydrilla tissue | 0.3 grams | 6 cm |  |  |  |  |  |
| CS(=O)(=O)c1ccc(C(=O)C2C(=O)CCCC2=O)c([N+](=O)[O-])c1 [mesotrione] |  |  |  |  |  |  |  |  |  |  |  | significant bleaching and reddening in the new grown tips | significant reduction in shoot biomass | did not observe a significant reduction in shoot length | 1.4 grams | 16 cm |
